Test results published in patent US20010010827A1, “Method and composition for treatment of headache using magnesium” (priority 1991, published 2001).
Where two headings read alike, the source gives them in different places.

Experiments:
[1] = system: headache (migraine, cluster, chronic migrainous, chronic tension-type)
Source text: Forty consecutive patients who presented to the headache clinic with a moderate or severe headache of any type (4 or higher on a verbal 1 to 10 scale) were enrolled in this study after an informed consent. […] Patients with renal, cardiac, diabetic or other medical problems were excluded. The international Headache Society classification was used to diagnose all patients.^23 Age-matched healthy volunteers served as control subjects.
Immediately prior to the magnesium infusion a blood sample of serum IMg^2+, total magnesium (TMg) and ionized calcium (ICa^2+) was drawn under anaerobic conditions. The laboratory personnel (B.T.A., B.M.A.) were blinded as the blood samples were not accompanied by any clinical information, while the clinician administering the infusion (A.M.) received test results several days after the completion of the evaluation. Serum levels of IMg^2+ and ICa^2+ were measured using ion-selective electrodes with a NOVA Biomedical Stat Profile 8 Analyzer.^16-18 The lower limit of normal for IMg^2+ levels in this study was 0.55/mmol/L. The normal range for the ICa^2+/IMg^2+ ratio is 1.92-2.08.
Headache intensity was measured on a verbal 1 to 10 scale prior to and 15 minutes after the infusion. A greater than 50% reduction of pain intensity was considered a positive response. The recurrence or worsening of a headache within the following 24 was determined in a telephone interview on the following day. The clinical response to the IMg^2+ levels was correlated. The correlation was considered to be positive if patients with a normal IMg^2+ level (≧0.55 mmol/L) had no relief or less than 24 hrs of relief. In patients with low IMg^2+ levels (<0.55 mmol/L), a correlation was considered positive only if relief lasted for more than 24 hrs.
Mean values±S.E.M. were calculated and compared for statistical significance by a Student's t-test, ANOVA with Scheffe's contrast test, analysis of co-variance for age, and linear regression analysis, where appropriate. Chi-Square tests were also utilized where appropriate. A p-value of less than 0.05 was considered significant.

[2] = system: chronic migrainous headache; assay: Therapies tried in patient #27 for two months before the MgSO4 infusion; type: in vivo, human; details: acetaminophen 1000 mg or ibuprofen 400 mg four times/day, nabumetone 1000 mg/day for two weeks, cyproheptadine 4 mg nightly for two weeks
Procedure: Long-term results in patients with intermittent migraine attacks is difficult to gauge because of the variable frequency of migraines in these patients. Responses in patients with chronic headaches also varied. […] Various therapists (i.e., acetaminophen—1000 mg or ibuprofen—400 mg-four times/day; nabumetone— 1000 mg/day for two weeks; cyproheptadine—4 mg nightly for two weeks; physical exercise) were tried in this patient for two months prior to the infusion with no relief.

[3] = Oral glucose loading: ionized, total and intracellular free magnesium; type: in vivo, human; details: oral glucose 100 gm
Procedure: Ionized magnesium, serum total magnesium, and plasma renin activity (PRA) in fasting normotensive (NT) (n=20), essential hypertensive (n=28) subjects was monitored before, and 60, 90, 120 and 180 minutes after oral glucose loading (100 gm). Results were compared to intracellular free magnesium values obtained at the same time intervals as measured using ^31P-NMR spectroscopy.

[4] = of the 40 patients given IV MgSO4

Structure (SMILES): O=S(=O)([O-])[O-].[Mg+2] [MgSO4, magnesium sulfate]
- other side effects ([1]; 40 patients, IV infusion): No other side effects were noted
- side effect during the IV infusion ([1]; almost all patients): flushed feeling
- duration of relief ([1]; cluster headache, repeat infusions of 1 to 3 gram each): approximately 48 hours
- Return Within 24 hr ([1]; individual chronic tension headache patients, recurrence or worsening of headache within 24 hr): N
- Response ([1]; individual cluster headache patients, 1 g MgSO4 IV over 5 min, positive = greater than 50% reduction of pain intensity 15 min after infusion): Y
- onset of improvement of headache ([1]; most patients): began to improve before the end of infusion
- duration of relief ([1]; most patients whose headache returned within 24 hours): 1 to 2 h
- number of patients with persistent relief of headache beyond 24 hours ([1]; of the 32 initial responders): 18 patients
- number of patients with at least a 50% initial reduction of pain intensity [1, 4]: 32 patients
- patients with at least a 50% initial reduction of pain intensity [1, 4]: 80%
- duration of relief ([1]; patient #17, chronic cluster headache, after the initial and each of three subsequent infusions): 28 h
- persistence of response ([1]; patient #27 (youngest patient), single infusion): positive response to Mg that persists five months later
- duration of relief ([1]; patient #28, chronic migrainous headache): 24 h
- outcome of cluster episode ([1]; patients #18 and #19, episodic clusters, single infusion): aborted the entire cluster episode
- time to return of headaches ([1]; patients #24 and #25, episodic clusters): ≤ 24 h
- duration of relief ([1]; the other four cluster headache patients): two-seven
- patients with complete elimination of pain ([1]; within 5 min of infusion): 80%

Structure (SMILES): CC(=O)Nc1ccc(O)cc1 [acetaminophen]
- relief of headache [2]: no relief

Structure (SMILES): O=C[C@H](O)[C@@H](O)[C@H](O)[C@H](O)CO [glucose]
- total magnesium values after glucose loading [3]: did not differ
- ionized Mg2+ levels after oral glucose loading ([3]; elevated from 0.60±0.02, ion selective electrode, p<0.01): 0.64 ± 0.02 mM
- intracellular Mg after oral glucose loading ([3]; lowered from 219± 12, 31P-NMR, p<0.01): 193 ± 13 µM

Structure (SMILES): CC(C)Cc1ccc(C(C)C(=O)O)cc1 (centres unmarked) [ibuprofen]
- relief of headache [2]: no relief

Structure (SMILES): COc1ccc2cc(CCC(C)=O)ccc2c1 [nabumetone]
- relief of headache [2]: no relief
